Measurements: patent US20240101585A1, “HETEROAROMATIC PHOSPHONIUM SALTS AND THEIR USE TREATING CANCER” (FLORATEK PHARMA AG, priority 2021, published 2024)

Legend:
U937 = test: CellTiter-Glow Luminescent Cell Viability assay, U937 (lymphoma); assay type: cell-based; settings: Homo sapiens, U-937, 72 h, absolute IC50 (T/C=50%), read-out: IC50 against U937
Experimental: (§1) Antitumor activity of the compounds and doxorubicin as a positive control was assessed by using the CellTiter-Glow® Luminescent Cell Viability assay (Promega #G7572) according to the manufacturer's instructions. The compounds were tested at 5 or 6 concentrations in half-log increments (highest concentration 30 μM or 100 μM) in duplicate or triplicate well conditions.
(§2) Tumor cells were grown at 37° C. in a humidified atmosphere with 5% CO2 in RPMI 1640 or DMEM medium, supplemented with 10% (v/v) fetal calf serum and 50 μg/ml gentamicin for up to 20 passages, and were passaged once or twice weekly. Cells were harvested using TrypLE or PBS buffer containing 1 mM EDTA, and the percentage of viable cells was determined using a CASY Model TI cell counter (OMNI Life Science). Cells were harvested from exponential phase cultures, counted and plated in 96 well flat-bottom microtiter plates at a cell density depending on the cell line's growth rate (4,000-20,000 cells/well depending on the cell line's growth rate, up to 60,000 for hematological cancer cell lines) in RPMI 1640 or DMEM medium supplemented with 10% (v/v) fetal calf serum and 50 μg/ml gentamicin (140 μl/well). […] Viability of cells was quantified by or CellTiter-Glow® Luminescent Cell Viability assay (Promega #G7572). Luminescence was measured with a microplate luminometer (Promega or PerkinElmer. […]

KM12 = test: CellTiter-Glow Luminescent Cell Viability assay, KM12 (colon); assay type: cell-based; settings: Homo sapiens, 72 h, absolute IC50 (T/C=50%), read-out: IC50 against KM12
Experimental: as §1, §2

A375 = test: CellTiter-Glow Luminescent Cell Viability assay, A375 (melanoma); assay type: cell-based; settings: Homo sapiens, A-375, 72 h, absolute IC50 (T/C=50%), read-out: IC50 against A375
Experimental: as §1, §2

[1] = system: breast and colon carcinomas, lymphoma and melanoma cancer cell growth; test: CellTiter-Glow cell viability assay, cancer cell line panel (summary statement); assay type: cell-based; settings: lymphoma and melanoma cell lines of Table 2, read-out: IC50s, cancer cell growth inhibition
Experimental: as §1, §2

MDA-MB-468 = test: CellTiter-Glow Luminescent Cell Viability assay, MDA-MB-468 (breast); assay type: cell-based; settings: Homo sapiens, 72 h, absolute IC50 (T/C=50%), read-out: IC50 against MDA-MB-468
Experimental: as §1, §2

SK-Mel-5 = test: CellTiter-Glow Luminescent Cell Viability assay, SK-Mel-5 (melanoma); assay type: cell-based; settings: Homo sapiens, 72 h, absolute IC50 (T/C=50%), read-out: IC50 against SK-Mel-5
Experimental: as §1, §2

Farage = test: CellTiter-Glow Luminescent Cell Viability assay, Farage (lymphoma); assay type: cell-based; settings: 72 h, absolute IC50 (T/C=50%), read-out: IC50 against Farage
Experimental: as §1, §2

A2058 = test: CellTiter-Glow Luminescent Cell Viability assay, A2058 (melanoma); assay type: cell-based; settings: Homo sapiens, 72 h, absolute IC50 (T/C=50%), read-out: IC50 against A2058
Experimental: as §1, §2

[2] = In vivo tolerability, maximum tolerated dose in nude mice
Experimental: To assess the toxicity of the test compounds in vivo and to determine the maximum tolerated dose 4 BALB/c Nude male mice, 4-9 weeks old were injected intraperitoneally (i.p) with various doses of the drug or vehicle 2.5% DMSO/5% EtOH/20% PEG200 in saline. The volume of the injection was 5 ml/kg. The administered doses were confirmed by LC-UV or LC-MS/MS.
Mice were monitored for body weight before each injection and twice a day for clinical signs of toxicity.
All procedures related to animal handling, care and the treatment in the study were performed according to the guidelines of the Association for Assessment and Accreditation of Laboratory Animal Care (AAALAC).
In order to assess the in vivo toxicity of SND350 various doses of the drug were administered either as a single dose or repeat doses into nude mice.

Molecule `COc1c(O)cc(O)c2c(=O)cc(-c3ccc(CCCCC[P+](c4ccccc4)(c4ccccc4)c4ccccc4)cc3)oc12.[Br-]` [SND350, (5-(4-(5,7-dihydroxy-8-methoxy-4-oxo-4H-chromen-2-yl)phenyl)pentyl)triphenylphosphonium bromide] has an IC50 (U937) of 2900 nM, an IC50 (KM12) of 2800 nM and an IC50 (A375) of 8900 nM. For the same molecule, the IC50 [1] was < 10000 nM, the IC50 (MDA-MB-468) was 2800 nM and the IC50 (SK-Mel-5) was 2100 nM. For the same molecule, the IC50 (Farage) was 800 nM, the IC50 (A2058) was 6500 nM and the “tolerability of multiple administrations” value ([2]; i.p., qod for a total of 7 injections, 10 mg/kg/inj) was “well tolerated”. It also gave an MTD ([2]; male, BALB/c Nude, mouse, in vivo, ip, single i.p. administration) of 40 mg/kg.
